Test results reported in patent US20230381129A1, “PERMETRIN FOR USE IN THE TREATMENT OF DEMODEX SPP INFESTATION” (priority 2020, published 2023).
Counter-ions that a name gives are not always drawn.

What was measured:
[1] = system: Demodex mites; assay: In vitro survival study of Demodex mites on a glass slide without a coverslip; set-up: species or system Demodex spp.
Protocol: At least ten eyelashes from the upper and lower eyelids of both eyes were randomly collected from all subjects from the subsequent groups. The collected material was assessed in a UB-203i light microscope with a five-point revolver bowl and a vision track with a magnification of 4×, 10×, 20×, 40× and 100×, archiving the results with a digital camera type Toupcam TP 601300A from Touptek Photonics installed in the device.
In the case of the presence of Demodex mites, several dozen different chemical compounds in various concentrations with a potential demodicidal effect were used on the glass slide without the use of a coverslip. […] The in vitro test results for permethrin and fluralaner were archived using a Toupcam TP 601300A digital camera from Touptek Photonics mounted on the device.

[2] = system: Demodex spp. infestation; assay: Topical use of shampoo or shower gel in a person with inflammation and redness; type: in vivo, humans; settings: shampoo or shower gel containing 0.75% active, 3 times a week for 2 months, human
Excerpt: A shampoo or shower gel containing 0.75% permethrin is used 3 times a week for a period of 2 months.
Shampoo or shower gel containing 0.75% fluralaner is used 3 times a week for a period of 2 months.
A shampoo or shower gel containing 0.5% fluralaner and 0.5% permethrin is used 3 times a week for a period of 2 months.

CC1COc2c(N3CCN(C)CC3)c(F)cc3c(=O)c(C(=O)O)cn1c23 (stereo not drawn) [Ofloxacin]
Time of Survival of Demodex mites ([1]; concentration 0.30%): more than 15 minutes

O=C(OCc1ccccc1)c1ccccc1 [Novosscabin (benzyl benzoate), benzyl benzoate]
Time of Survival of Demodex mites ([1]; concentration 30%): more than 15 minutes

NCC[C@H](O)C(=O)N[C@@H]1C[C@H](N)[C@@H](O[C@H]2O[C@H](CN)[C@@H](O)[C@H](O)[C@H]2O)[C@H](O)[C@H]1O[C@H]1O[C@H](CO)[C@@H](O)[C@H](N)[C@H]1O [Amikacin]
Time of Survival of Demodex mites ([1]; concentration 0.30%): more than 15 minutes

CC1(C)C(C=C(Cl)Cl)C1C(=O)OCc1cccc(Oc2ccccc2)c1 (stereo not drawn) [Permethrin]
Eyelid margin inflammation and eye symptoms (burning, itching, dry eyes, scales and deposits) after treatment [2]: reduction in inflammation of the eyelid margins | Skin inflammation symptoms and redness after treatment [2]: visible improvement | Time of Survival of Demodex mites ([1]; concentration 10%): 5 min

NC(N)=O [Urea]
Time of Survival of Demodex mites ([1]; concentration 20%): more than 15 minutes

C[C@H]1COc2c(N3CCN(C)CC3)c(F)cc3c(=O)c(C(=O)O)cn1c23 [Levofloxacin]
Time of Survival of Demodex mites ([1]; concentration 0.50%): more than 15 minutes

CCO [Ethanol]
Time of Survival of Demodex mites ([1]; concentration 98%): more than 15 minutes

Gentamicin
Time of Survival of Demodex mites ([1]; concentration 0.30%): more than 15 minutes

Ivermectin
Time of Survival of Demodex mites ([1]; concentration 1%): more than 15 minutes

CC[C@@H]1C(=O)OC[C@@H]1Cc1cncn1C.Cl [Pilocarpinum hydrochloridum]
Time of Survival of Demodex mites ([1]; concentration 2%): more than 15 minutes

Cc1cc(C2=NOC(c3cc(Cl)cc(Cl)c3)(C(F)(F)F)C2)ccc1C(=O)NCC(=O)NCC(F)(F)F (stereo not drawn) [Fluralaner, 4-[(5R5)-5-(3,5-dichlorophenyl)-4,5-dihydro-5-(trifluoromethyl)-1,2-oxazol-3-yl]-N-[2-oxo-2-(2,2,2-trifluoroethylamino)ethyl]-o-toluamide]
Eyelid margin inflammation and eye symptoms (burning, itching, dry eyes, scales and deposits) after treatment [2]: reduction in inflammation of the eyelid margins | Skin inflammation symptoms and redness after treatment [2]: visible improvement | Time of Survival of Demodex mites ([1]; concentration 10%): 6 min

CC=CC(=O)N(CC)c1ccccc1C [Crotamiton]
Time of Survival of Demodex mites ([1]; concentration 10%): more than 15 minutes

CN(C)C(=O)Oc1cccc([N+](C)(C)C)c1 [Polstigmine (neostigmine methyl sulfate), neostigmine methyl sulfate]
Time of Survival of Demodex mites ([1]; concentration 0.05%): more than 15 minutes

N=C(NCCCCCCNC(=N)NC(=N)Nc1ccc(Cl)cc1)NC(=N)Nc1ccc(Cl)cc1.O=C(O)[C@H](O)[C@@H](O)[C@H](O)[C@H](O)CO.O=C(O)[C@H](O)[C@@H](O)[C@H](O)[C@H](O)CO [Manusan (chlorhexidine digluconate), chlorhexidine digluconate]
Time of Survival of Demodex mites ([1]; concentration 4%): more than 15 minutes

CNC[C@H](O)c1cccc(O)c1.Cl [Phenylephrini hydrochloridum]
Time of Survival of Demodex mites ([1]; concentration 10%): more than 15 minutes

O=C(O)c1cn(C2CC2)c2cc(N3CCNCC3)c(F)cc2c1=O [Ciprofloxacin]
Time of Survival of Demodex mites ([1]; concentration 0.30%): more than 15 minutes

NC[C@H]1O[C@H](O[C@H]2[C@H](O)[C@@H](O[C@H]3O[C@H](CO)[C@@H](O)[C@H](N)[C@H]3O)[C@H](N)C[C@@H]2N)[C@H](N)C[C@@H]1O [Tobramycin]
Time of Survival of Demodex mites ([1]; concentration 0.30%): more than 15 minutes

OO [Hydrogen peroxide (hydrogen peroxide), Hydrogen peroxide]
Time of Survival of Demodex mites ([1]; concentration 3%): more than 15 minutes

CN(C)CCOC(=O)C(c1ccccc1)C1(O)CCCC1 (stereo not drawn) [Cyclopentolat]
Time of Survival of Demodex mites ([1]; concentration 1%): more than 15 minutes

CN1[C@@H]2CC[C@H]1CC(OC(=O)C(CO)c1ccccc1)C2.CN1[C@@H]2CC[C@H]1CC(OC(=O)C(CO)c1ccccc1)C2.O=S(=O)(O)O (stereo partly drawn) [Atropinum sulfuricum]
Time of Survival of Demodex mites ([1]; concentration 1%): more than 15 minutes
